# Legend:
# Assay type in all cases: cell-based
# SMARCA4 = target: T1, SMARCA4 (Homo sapiens, UniProt P51532); experiment: SMARCA4 Western blot MV4-11 degradation; conditions: for Dmax: MV4-11, MV4-11 cells, read-out: SMARCA4 MSD MV411 degradation 24 h: average Dmax %; for Dmax / DC50: 24 h; for DC50 / SMARCA4 MSD MV411 degradation 24 h: average Dmax %: MV4-11 cells; for DC50: read-out: SMARCA4 MSD MV411 degradation 24 h: Mean external-Abs DC50
# T1 construct: SMARCA2 and SMARCA4 protein degradation in MV4-11 cells; endogenous in cells; host or cells: MV4-11
# SMARCA2 [1] = target: T2, SMARCA2 (Homo sapiens, UniProt P51531); experiment: MSD SMARCA2 degradation in A549 cell line; parameters: endogenous in cells; conditions: for Dmax: A549, A549 cells; for Dmax / DC50: 24 h; for DC50 / SMARCA2 MSD A549 degradation 24 h: Average Dmax %: A549 cells; for DC50: read-out: SMARCA2 MSD A549 degradation 24 h: Average external-Abs DC50
# Procedure, shortened: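 A549 cells treated 24 h with compound, 3-fold series 1000 nM down to 0.152 nM plus DMSO. RIPA lysates captured on MSD plates, probed with rabbit anti-SMARCA2/BRM (1 µg/ml) then SULFO-TAG anti-rabbit, electrochemiluminescence read. DC50 and 24 h Dmax reported as letter bins.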
# SMARCA2 [2] = target: T2, SMARCA2; experiment: SMARCA2 Western blot MV4-11 degradation; parameters: SMARCA2 and SMARCA4 protein degradation in MV4-11 cells; endogenous in cells; host or cells: MV4-11; conditions: for Dmax: MV4-11, MV4-11 cells, read-out: SMARCA2 MSD MV411 degradation 24 h: average Dmax %; for Dmax / DC50: 24 h; for DC50 / SMARCA2 MSD MV411 degradation 24 h: average Dmax %: MV4-11 cells; for DC50: read-out: SMARCA2 MSD MV411 degradation 24 h: Mean external-Abs DC50
# T2 sequence (P51531 whole entry): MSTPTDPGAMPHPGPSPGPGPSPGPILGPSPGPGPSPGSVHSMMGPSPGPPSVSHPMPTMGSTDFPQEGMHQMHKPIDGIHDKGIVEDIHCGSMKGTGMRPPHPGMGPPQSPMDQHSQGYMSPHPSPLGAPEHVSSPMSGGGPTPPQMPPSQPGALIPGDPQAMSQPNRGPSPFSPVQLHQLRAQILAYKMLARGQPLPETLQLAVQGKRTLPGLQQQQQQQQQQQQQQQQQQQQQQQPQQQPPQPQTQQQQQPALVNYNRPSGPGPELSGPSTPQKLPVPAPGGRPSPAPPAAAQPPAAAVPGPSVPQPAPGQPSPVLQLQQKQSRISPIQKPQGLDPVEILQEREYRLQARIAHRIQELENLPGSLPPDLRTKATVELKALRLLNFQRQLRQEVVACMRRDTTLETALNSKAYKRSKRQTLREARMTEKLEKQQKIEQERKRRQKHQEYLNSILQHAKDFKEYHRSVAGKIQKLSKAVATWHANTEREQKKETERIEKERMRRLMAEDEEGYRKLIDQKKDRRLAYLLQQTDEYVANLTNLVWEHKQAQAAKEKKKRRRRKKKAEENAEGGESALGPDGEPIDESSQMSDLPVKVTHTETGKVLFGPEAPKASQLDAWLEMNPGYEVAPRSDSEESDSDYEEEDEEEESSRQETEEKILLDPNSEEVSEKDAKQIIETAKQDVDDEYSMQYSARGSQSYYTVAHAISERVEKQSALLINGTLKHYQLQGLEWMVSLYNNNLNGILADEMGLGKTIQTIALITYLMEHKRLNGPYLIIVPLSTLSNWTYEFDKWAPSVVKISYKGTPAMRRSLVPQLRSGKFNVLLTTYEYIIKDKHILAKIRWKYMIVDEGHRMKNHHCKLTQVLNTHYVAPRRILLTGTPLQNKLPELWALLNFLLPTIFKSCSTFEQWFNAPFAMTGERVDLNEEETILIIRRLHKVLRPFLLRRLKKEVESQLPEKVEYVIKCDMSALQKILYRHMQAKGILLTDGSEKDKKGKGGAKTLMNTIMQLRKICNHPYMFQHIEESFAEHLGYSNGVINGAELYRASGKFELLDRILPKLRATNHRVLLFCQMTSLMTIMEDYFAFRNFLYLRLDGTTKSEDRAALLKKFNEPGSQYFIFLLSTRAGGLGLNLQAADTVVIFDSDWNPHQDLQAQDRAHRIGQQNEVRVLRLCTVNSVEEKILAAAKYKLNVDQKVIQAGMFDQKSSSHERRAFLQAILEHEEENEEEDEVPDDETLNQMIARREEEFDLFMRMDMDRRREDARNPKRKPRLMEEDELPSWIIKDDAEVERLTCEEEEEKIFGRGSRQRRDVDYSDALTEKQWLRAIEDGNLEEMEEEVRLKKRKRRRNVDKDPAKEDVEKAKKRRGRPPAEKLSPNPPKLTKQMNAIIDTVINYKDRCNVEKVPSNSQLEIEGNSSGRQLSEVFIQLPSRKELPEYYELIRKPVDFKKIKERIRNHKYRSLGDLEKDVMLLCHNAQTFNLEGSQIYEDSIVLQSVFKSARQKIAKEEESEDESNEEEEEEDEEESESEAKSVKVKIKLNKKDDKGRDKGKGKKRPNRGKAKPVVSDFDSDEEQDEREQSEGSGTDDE
# T1 sequence (P51532 whole entry): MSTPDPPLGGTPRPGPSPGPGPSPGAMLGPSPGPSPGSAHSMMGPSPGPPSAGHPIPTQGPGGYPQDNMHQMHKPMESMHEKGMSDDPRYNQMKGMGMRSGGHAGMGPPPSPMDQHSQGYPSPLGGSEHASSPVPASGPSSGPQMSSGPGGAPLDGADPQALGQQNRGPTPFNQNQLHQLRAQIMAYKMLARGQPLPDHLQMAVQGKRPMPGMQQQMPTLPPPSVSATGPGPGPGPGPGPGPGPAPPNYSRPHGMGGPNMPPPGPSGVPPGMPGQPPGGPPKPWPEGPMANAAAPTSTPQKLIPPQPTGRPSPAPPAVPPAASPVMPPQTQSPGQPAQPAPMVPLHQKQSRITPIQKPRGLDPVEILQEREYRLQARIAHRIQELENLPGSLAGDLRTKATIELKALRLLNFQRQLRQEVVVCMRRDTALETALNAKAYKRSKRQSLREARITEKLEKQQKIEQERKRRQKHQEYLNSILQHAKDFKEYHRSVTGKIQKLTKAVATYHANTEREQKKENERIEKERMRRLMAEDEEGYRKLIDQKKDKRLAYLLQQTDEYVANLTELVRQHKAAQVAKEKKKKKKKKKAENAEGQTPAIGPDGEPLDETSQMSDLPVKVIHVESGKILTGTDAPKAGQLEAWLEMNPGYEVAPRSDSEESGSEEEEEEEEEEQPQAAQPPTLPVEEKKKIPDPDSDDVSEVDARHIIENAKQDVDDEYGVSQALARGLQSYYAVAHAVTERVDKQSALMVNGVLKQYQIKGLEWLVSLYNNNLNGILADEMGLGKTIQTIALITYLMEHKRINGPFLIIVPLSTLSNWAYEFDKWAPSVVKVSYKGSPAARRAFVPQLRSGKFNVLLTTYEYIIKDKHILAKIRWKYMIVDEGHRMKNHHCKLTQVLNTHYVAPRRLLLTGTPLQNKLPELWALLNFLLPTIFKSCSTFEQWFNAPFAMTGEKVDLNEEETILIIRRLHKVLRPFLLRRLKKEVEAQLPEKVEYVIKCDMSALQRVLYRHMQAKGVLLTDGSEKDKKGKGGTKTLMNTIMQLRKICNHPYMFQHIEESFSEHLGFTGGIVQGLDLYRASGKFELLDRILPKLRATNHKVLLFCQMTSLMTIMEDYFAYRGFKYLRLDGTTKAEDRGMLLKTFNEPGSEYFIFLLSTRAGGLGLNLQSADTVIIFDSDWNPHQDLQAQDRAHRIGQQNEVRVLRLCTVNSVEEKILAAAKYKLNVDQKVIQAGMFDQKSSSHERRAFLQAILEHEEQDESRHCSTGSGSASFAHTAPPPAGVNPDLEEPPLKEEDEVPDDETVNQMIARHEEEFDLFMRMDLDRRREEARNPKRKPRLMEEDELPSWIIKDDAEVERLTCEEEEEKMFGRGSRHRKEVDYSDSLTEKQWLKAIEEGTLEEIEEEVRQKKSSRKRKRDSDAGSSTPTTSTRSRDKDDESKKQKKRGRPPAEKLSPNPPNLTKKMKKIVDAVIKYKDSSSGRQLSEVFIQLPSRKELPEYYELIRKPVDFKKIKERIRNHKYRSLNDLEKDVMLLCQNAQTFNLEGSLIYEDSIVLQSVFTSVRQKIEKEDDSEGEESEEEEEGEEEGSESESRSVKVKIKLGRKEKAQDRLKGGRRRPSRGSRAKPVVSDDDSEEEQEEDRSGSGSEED
Structure (SMILES),Dmax (SMARCA4) [%],DC50 (SMARCA4) [nM],Dmax (SMARCA2 [1]) [%],DC50 (SMARCA2 [1]) [nM],Dmax (SMARCA2 [2]) [%],DC50 (SMARCA2 [2]) [nM],SMARCA4 MSD MV411 degradation 24 h: average Dmax % (SMARCA4),SMARCA2 MSD A549 degradation 24 h: Average Dmax % (SMARCA2 [1]),SMARCA2 MSD MV411 degradation 24 h: average Dmax % (SMARCA2 [2])
"Cc1ncsc1-c1ccc(CNC(=O)[C@@H]2C[C@@H](O)CN2C(=O)[C@@H](NC(=O)[C@H]2CC3(C2)C[C@H](N2CCC(c4ccc(N5C6CCC5CN(c5cc(-c7ccccc7O)nnc5N)C6)cc4)CC2)C3)C(C)(C)C)nc1 (stereo partly drawn) [I-23, (2S,4R)-1-((2S)-2-(6-(4-(4-(3-(3-amino-6-(2-hydroxyphenyl)pyridazin-4-yl)-3,8-diazabicyclo[3.2.1]octan-8-yl)phenyl)piperidin-1-yl)spiro[3.3]heptane-2-carboxamido)-3,3-dimethylbutanoyl)-4-hydroxy-N-((5-(4-methylthiazol-5-yl)pyridin-2-yl)methyl)pyrrolidine-2-carboxamide]",< 50,> 1000,< 50,> 1000,< 50,100 to 500,–,–,–
"Cc1ncsc1-c1ccc(CNC(=O)[C@@H]2C[C@@H](O)CN2C(=O)C(c2cc(OCCN3CCC(O[C@H]4C[C@H](Oc5cc(N6C7CCC6CN(c6cc(-c8ccccc8O)nnc6N)C7)ccn5)C4)CC3)no2)C(C)C)cc1 (stereo partly drawn) [I-22, (2S,4R)-1-(2-(3-(2-(4-((1r,3r)-3-((4-(3-(3-amino-6-(2-hydroxyphenyl)pyridazin-4-yl)-3,8-diazabicyclo[3.2.1]octan-8-yl)pyridin-2-yl)oxy)cyclobutoxy)piperidin-1-yl)ethoxy)isoxazol-5-yl)-3-methylbutanoyl)-4-hydroxy-N-(4-(4-methylthiazol-5-yl)benzyl)pyrrolidine-2-carboxamide]",> 90,> 1000,> 90,501 to 1000,70 to 90,< 100,–,–,–
"Cc1ncsc1-c1ccc(CNC(=O)[C@@H]2C[C@@H](O)CN2C(=O)[C@@H](NC(=O)[C@H]2CC3(C2)C[C@H](N2CCC(c4ccc(N5C6CCC5CN(c5cc(-c7ccccc7O)nnc5N)C6)cc4)CC2)C3)C(C)(C)C)cn1 (stereo partly drawn) [I-27, (2S,4R)-1-((2S)-2-(6-(4-(4-(3-(3-amino-6-(2-hydroxyphenyl)pyridazin-4-yl)-3,8-diazabicyclo[3.2.1]octan-8-yl)phenyl)piperidin-1-yl)spiro[3.3]heptane-2-carboxamido)-3,3-dimethylbutanoyl)-4-hydroxy-N-((6-(4-methylthiazol-5-yl)pyridin-3-yl)methyl)pyrrolidine-2-carboxamide]",< 50,> 1000,< 50,> 1000,< 50,100 to 500,–,–,–
"Cc1ncsc1-c1ccc([C@H](C)NC(=O)[C@@H]2C[C@@H](O)CN2C(=O)[C@@H](NC(=O)[C@H]2CC3(C2)C[C@H](N2CCC(c4ccc(N5C6CCC5CN(c5cc(-c7ccccc7O)nnc5N)C6)cc4)CC2)C3)C(C)(C)C)cn1 (single isomer, unassigned) [I-5]",–,> 1000,< 50,> 1000,< 50,100 to 500,D (D (<50% degradation)),–,–
"Cc1ncsc1-c1ccc([C@H](C)NC(=O)[C@@H]2C[C@@H](O)CN2C(=O)[C@@H](NC(=O)[C@H]2CCC3(CC2)C[C@H](N2CCC(c4cnc(N5C6CCC5CN(c5cc(-c7ccccc7O)nnc5N)C6)nc4)CC2)C3)C(C)(C)C)cc1 (stereo in doubt) [I-15, (2S,4S)-1-((2S)-2-(2-(4-(2-(3-(3-amino-6-(2-hydroxyphenyl)pyridazin-4-yl)-3,8-diazabicyclo[3.2.1]octan-8-yl)pyrimidin-5-yl)piperidin-1-yl)spiro[3.5]nonane-7-carboxamido)-3,3-dimethylbutanoyl)-4-hydroxy-N—((S)-1-(4-(4-methylthiazol-5-yl)phenyl)ethyl)pyrrolidine-2-carboxamide]",50 to 70,> 1000,> 90,100 to 500,> 90,< 100,–,–,–
"Cc1ncsc1-c1ccc(CNC(=O)[C@@H]2C[C@@H](O)CN2C(=O)[C@@H](NC(=O)CN(C)Cc2cnc(N3C4CCC3CN(c3cc(-c5ccccc5O)nnc3N)C4)nc2)C(C)(C)C)cc1 [I-37, (2S,4R)-1-((2S)-2-(2-(((2-(3-(3-amino-6-(2-hydroxyphenyl)pyridazin-4-yl)-3,8-diazabicyclo[3.2.1]octan-8-yl)pyrimidin-5-yl)methyl)(methyl)amino)acetamido)-3,3-dimethylbutanoyl)-4-hydroxy-N-(4-(4-methylthiazol-5-yl)benzyl)pyrrolidine-2-carboxamide]",> 90,< 100,> 90,501 to 1000,> 90,< 100,–,–,–
"Cc1ncsc1-c1ccc(CNC(=O)[C@@H]2C[C@@H](O)CN2C(=O)C(c2cc(N3CCC(CCN4CCC(c5cnc(N6C7CCC6CN(c6cc(-c8ccccc8O)nnc6N)C7)nc5)CC4)CC3)no2)C(C)C)cc1 (stereo partly drawn) [I-61, (2S,4R)-1-(2-(3-(4-(2-(4-(2-(3-(3-amino-6-(2-hydroxyphenyl)pyridazin-4-yl)-3,8-diazabicyclo[3.2.1]octan-8-yl)pyrimidin-5-yl)piperidin-1-yl)ethyl)piperidin-1-yl)isoxazol-5-yl)-3-methylbutanoyl)-4-hydroxy-N-(4-(4-methylthiazol-5-yl)benzyl)pyrrolidine-2-carboxamide]",> 90,< 100,> 90,< 100,> 90,< 100,–,–,–
"Cc1ncsc1-c1ccc(CNC(=O)[C@@H]2C[C@@H](O)CN2C(=O)[C@@H](NC(=O)[C@H]2CC3(C2)C[C@H](N2CCC(c4ccc(N5C6CCC5CN(c5cc(-c7ccccc7O)nnc5N)C6)cc4)CC2)C3)C(C)(C)C)nc1 (stereo partly drawn) [I-24, (2S,4R)-1-((2S)-2-(6-(4-(4-(3-(3-amino-6-(2-hydroxyphenyl)pyridazin-4-yl)-3,8-diazabicyclo[3.2.1]octan-8-yl)phenyl)piperidin-1-yl)spiro[3.3]heptane-2-carboxamido)-3,3-dimethylbutanoyl)-4-hydroxy-N-((5-(4-methylthiazol-5-yl)pyridin-2-yl)methyl)pyrrolidine-2-carboxamide]",–,> 1000,–,> 1000,–,100 to 500,–,–,–
"Cc1ncsc1-c1ccc([C@H](C)NC(=O)[C@@H]2C[C@@H](O)CN2C(=O)[C@@H](NC(=O)[C@H]2CC3(C2)C[C@H](N2CCC(c4cnc(N5C6CCC5CN(c5cc(-c7ccccc7O)nnc5N)C6)nc4)CC2)C3)C(C)(C)C)cc1 (single isomer, unassigned) [I-2]",–,< 100,–,< 100,–,< 100,B (B (>70-90% degradation)),A (A (>90% o degradation)),A (A (>90% degradation))
"Cc1ncsc1-c1cnc(CNC(=O)[C@@H]2C[C@@H](O)CN2C(=O)[C@@H](NC(=O)[C@H]2CC3(C2)C[C@H](N2CCC(c4ccc(N5C6CCC5CN(c5cc(-c7ccccc7O)nnc5N)C6)cc4)CC2)C3)C(C)(C)C)cn1 (stereo partly drawn) [I-29, (2S,4R)-1-((2S)-2-(6-(4-(4-(3-(3-amino-6-(2-hydroxyphenyl)pyridazin-4-yl)-3,8-diazabicyclo[3.2.1]octan-8-yl)phenyl)piperidin-1-yl)spiro[3.3]heptane-2-carboxamido)-3,3-dimethylbutanoyl)-4-hydroxy-N-((5-(4-methylthiazol-5-yl)pyrazin-2-yl)methyl)pyrrolidine-2-carboxamide]",50 to 70,> 1000,< 50,> 1000,< 50,> 1000,–,–,–
Cc1ncsc1-c1ccc(CNC(=O)[C@@H]2C[C@@H](O)CN2C(=O)[C@@H](NC(=O)[C@H]2CC3(CC[C@H](N4CCC(c5cnc(N6C7CCC6CN(c6cc(-c8ccccc8O)nnc6N)C7)nc5)CC4)CC3)C2)C(C)(C)C)cc1 (stereo partly drawn) [I-13],70 to 90,> 1000,> 90,< 100,70 to 90,< 100,–,–,–
"Cc1ncsc1-c1ccc([C@H](C)NC(=O)[C@@H]2C[C@@H](O)CN2C(=O)[C@@H](NC(=O)[C@H]2CC3(C2)C[C@H](N2CCC(c4ccc(N5C6CCC5CN(c5cc(-c7ccccc7O)nnc5N)C6)cc4)CC2)C3)C(C)(C)C)cn1 (single isomer, unassigned) [I-6]",–,> 1000,–,> 1000,–,501 to 1000,A (A (>90% degradation)),B (B (>70-90% o degradation)),C (C (50-70% degradation))
"Cc1ncsc1-c1ccc(CNC(=O)[C@@H]2C[C@@H](O)CN2C(=O)[C@@H](NC(=O)[C@H]2CC3(C2)C[C@H](N2CCN(c4cnc(N5C6CCC5CN(c5cc(-c7ccccc7O)nnc5N)C6)nc4)CC2)C3)C(C)(C)C)cc1 (single isomer, unassigned) [I-9]",–,> 1000,–,100 to 500,–,< 100,D (D (<50% degradation)),B (B (>70-90% o degradation)),B (B (>70-90% degradation))
